The text below walks through data of PubChem BioAssay AID180 (DTP/NCI, 2004).

“And” between values parts separate entries of the source, which are not always exact repeats. Equal entries are not always repeated.

A word on the T/C: it is the ratio of treated to control.

In the experiment the test system is BDF1 mice, Adenocarcinoma 755 s.c., tumor weight T/C. The experiment is described as follows: NCI In Vivo Anticancer Drug Screen. Data for tumor model Adenocarcinoma 755 (subcutaneous) in B6D2F1 (BDF1) mice. The settings on record: endpoint: mean tumor weight, higher = larger tumour. As for the experimental part: The antitumor activity of compounds was measured in mice bearing transplantable tumors. Survival or tumor size were measured and the results are expressed as the measurement made in the treated group (T) divided by the measurement made in the vehicle treated control group (C). The tumor model used in this assay is Adenocarcinoma 755 (subcutaneous) in B6D2F1 (BDF1) mice

Setting [1] is: dose: 30.0 mg/kg/injection, schedule: Q01DX011 (ip), vehicle: carboxymethylcellulose (CMC).
The mark [2] stands for this setting: dose: 60.0 mg/kg/injection, schedule: Q01DX011 (ip), vehicle: carboxymethylcellulose (CMC).
[3] abbreviates: dose: 120.0 mg/kg/injection, schedule: Q01DX011 (ip), vehicle: carboxymethylcellulose (CMC).
Setting [4] is: dose: 240.0 mg/kg/injection, schedule: Q01DX011 (ip), vehicle: carboxymethylcellulose (CMC).
Setting [5] is: dose: 225.0 mg/kg/injection, schedule: Q01DX011 (ip), vehicle: carboxymethylcellulose (CMC).

Consider `CCCSc1ncnc2nc[nH]c12`, for which the T/C by setting is: (dose: 0.12 mg/kg/injection, schedule: Q#A X022 (ip), vehicle: alcohol) 73 % of control; (dose: 0.25 mg/kg/injection, schedule: Q#A X022 (ip), vehicle: alcohol) 46 % of control; (dose: 0.5 mg/kg/injection, schedule: Q01DX011 (ip), vehicle: alcohol) 80 % of control; (dose: 1.0 mg/kg/injection, schedule: Q01DX006 (iv), vehicle: alcohol) 111 % of control; (dose: 1.0 mg/kg/injection, schedule: Q01DX011 (im), vehicle: alcohol) 82 % of control; (dose: 1.0 mg/kg/injection, schedule: Q01DX011 (ip), vehicle: alcohol) 55 % of control. In addition, the T/C (dose: 1.0 mg/kg/injection, schedule: Q01DX011 (oral), vehicle: alcohol) was 44 % of control; the T/C (dose: 1.0 mg/kg/injection, schedule: Q01DX011 (sc), vehicle: alcohol) is 98 % of control; the T/C (dose: 1.0 mg/kg/injection, schedule: Q03DX004 (ip), vehicle: alcohol) is 56 % of control; the T/C (dose: 2.5 mg/kg/injection, schedule: Q01DX011 (ip), vehicle: alcohol) was 24 % of control; the T/C (dose: 2.5 mg/kg/injection, schedule: Q#A X022 (ip), vehicle: alcohol) is 7 % of control; the T/C (dose: 3.0 mg/kg/injection, schedule: Q01DX011 (oral), vehicle: alcohol) is 15 % of control. The T/C is, setting by setting: (dose: 3.0 mg/kg/injection, schedule: Q03DX004 (ip), vehicle: alcohol) 85 % of control; (dose: 3.0 mg/kg/injection, schedule: Q07DX002 (ip), vehicle: alcohol) 53 % of control; (dose: 5.0 mg/kg/injection, schedule: Q01DX006 (iv), vehicle: alcohol) 16 % of control; (dose: 5.0 mg/kg/injection, schedule: Q01DX011 (im), vehicle: alcohol) 9 % of control; (dose: 5.0 mg/kg/injection, schedule: Q01DX011 (ip), vehicle: alcohol) 3 % of control; (dose: 5.0 mg/kg/injection, schedule: Q01DX011 (sc), vehicle: alcohol) 5 % of control. In addition, the T/C is, setting by setting: (dose: 5.0 mg/kg/injection, schedule: Q#A X022 (ip), vehicle: alcohol) 3 % of control; (dose: 6.0 mg/kg/injection, schedule: Q01DX011 (oral), vehicle: alcohol) 4 % of control; (dose: 6.0 mg/kg/injection, schedule: Q03DX004 (ip), vehicle: alcohol) 74 % of control; (dose: 6.0 mg/kg/injection, schedule: Q07DX002 (ip), vehicle: alcohol) 20 % of control; (dose: 10.0 mg/kg/injection, schedule: Q01DX006 (iv), vehicle: alcohol) 10 % of control; (dose: 10.0 mg/kg/injection, schedule: Q01DX011 (ip), vehicle: alcohol) 4 % of control. Besides, the T/C was 4 % of control (dose: 10.0 mg/kg/injection, schedule: Q01DX011 (sc), vehicle: alcohol); 4 % of control (dose: 10.0 mg/kg/injection, schedule: Q#A X022 (ip), vehicle: alcohol); 62 % of control (dose: 12.0 mg/kg/injection, schedule: Q01DX001 (ip), vehicle: alcohol); 4 % of control (dose: 12.0 mg/kg/injection, schedule: Q01DX011 (oral), vehicle: alcohol); 26 % of control (dose: 12.0 mg/kg/injection, schedule: Q03DX004 (ip), vehicle: alcohol); 36 % of control (dose: 12.0 mg/kg/injection, schedule: Q07DX002 (ip), vehicle: alcohol). Besides, the T/C is 1 % of control (dose: 20.0 mg/kg/injection, schedule: Q01DX006 (iv), vehicle: alcohol); 2 % of control (dose: 20.0 mg/kg/injection, schedule: Q01DX011 (ip), vehicle: alcohol); 6 % of control (dose: 20.0 mg/kg/injection, schedule: Q01DX011 (sc), vehicle: alcohol); 49 % of control (dose: 25.0 mg/kg/injection, schedule: Q01DX001 (ip), vehicle: alcohol); 5 % of control (dose: 25.0 mg/kg/injection, schedule: Q03DX004 (ip), vehicle: alcohol); 12 % of control (dose: 25.0 mg/kg/injection, schedule: Q07DX002 (ip), vehicle: alcohol). Further, the T/C is, setting by setting: (dose: 30.0 mg/kg/injection, schedule: Q01DX011 (ip), vehicle: alcohol) 3 % of control; (dose: 50.0 mg/kg/injection, schedule: Q03DX004 (ip), vehicle: alcohol) 16 % of control; (dose: 50.0 mg/kg/injection, schedule: Q07DX002 (ip), vehicle: alcohol) 16 % of control; (dose: 100.0 mg/kg/injection, schedule: Q01DX001 (ip), vehicle: alcohol) 35 % of control and 51 % of control; (dose: 100.0 mg/kg/injection, schedule: Q03DX004 (ip), vehicle: alcohol) 3 % of control; (dose: 100.0 mg/kg/injection, schedule: Q07DX002 (ip), vehicle: alcohol) 17 % of control. The T/C reads like this: (dose: 150.0 mg/kg/injection, schedule: Q01DX001 (ip), vehicle: alcohol) 21 % of control and 34 % of control; (dose: 150.0 mg/kg/injection, schedule: Q03DX004 (ip), vehicle: alcohol) 5 % of control; (dose: 150.0 mg/kg/injection, schedule: Q07DX002 (ip), vehicle: alcohol) 5 % of control; (dose: 200.0 mg/kg/injection, schedule: Q07DX002 (ip), vehicle: alcohol) 5 % of control.

For `CCOC=Nc1c(N)ncnc1F`, the T/C is, setting by setting: under setting [1], 92 % of control; under setting [2], 89 % of control; under setting [3], 57 % of control; under setting [4], 55 % of control.

Turning to `CC(=O)OCC1OC(n2cnc3c(=O)[nH]c(N)nc32)C(OC(C)=O)C1OC(C)=O` (stereo not given), the T/C is 59 % of control under setting [1]; 49 % of control under setting [2]; 57 % of control under setting [3]; 51 % of control under setting [4]; 87 % of control (dose: 400.0 mg/kg/injection, schedule: Q01DX011 (ip), vehicle: carboxymethylcellulose (CMC)); 83 % of control (dose: 600.0 mg/kg/injection, schedule: Q01DX011 (ip), vehicle: carboxymethylcellulose (CMC)).

Regarding `OCCNc1ncnc2c1ncn2C1CCCO1` (stereo not given), the T/C (dose: 50.0 mg/kg/injection, schedule: Q01DX011 (ip), vehicle: saline) was 174 % of control; the T/C (dose: 100.0 mg/kg/injection, schedule: Q01DX011 (ip), vehicle: saline) was 96 % of control; the T/C (dose: 200.0 mg/kg/injection, schedule: Q01DX011 (ip), vehicle: saline) is 48 % of control.

With `O=c1[nH]c2nc(Cl)nc(Cl)c2[nH]1`, the T/C is, setting by setting: (dose: 25.0 mg/kg/injection, schedule: Q01DX011 (ip), vehicle: carboxymethylcellulose (CMC)) 54 % of control; (dose: 75.0 mg/kg/injection, schedule: Q01DX011 (ip), vehicle: carboxymethylcellulose (CMC)) 117 % of control; under setting [5], 92 % of control.

`CSc1nc(C)c(Br)c(Sc2nc(N)nc3nc[nH]c23)n1`: the T/C (dose: 0.3 mg/kg/injection, schedule: Q01DX011 (ip), vehicle: carboxymethylcellulose (CMC)) was 106 % of control; the T/C (dose: 0.7 mg/kg/injection, schedule: Q01DX011 (ip), vehicle: carboxymethylcellulose (CMC)) is 117 % of control; the T/C (dose: 6.0 mg/kg/injection, schedule: Q01DX011 (ip), vehicle: carboxymethylcellulose (CMC)) is 42 % of control; the T/C (dose: 12.0 mg/kg/injection, schedule: Q01DX011 (ip), vehicle: carboxymethylcellulose (CMC)) is 28 % of control; the T/C (dose: 24.0 mg/kg/injection, schedule: Q01DX011 (ip), vehicle: carboxymethylcellulose (CMC)) was 6 % of control.

Consider `Clc1ccccc1CSc1ncnc2nc[nH]c12`, for which the T/C (dose: 5.0 mg/kg/injection, schedule: Q01DX011 (ip), vehicle: other) is 11 % of control; the T/C (dose: 10.0 mg/kg/injection, schedule: Q01DX011 (ip), vehicle: other) is 2 % of control; the T/C (dose: 31.0 mg/kg/injection, schedule: Q01DX011 (ip), vehicle: other) was 12 % of control; the T/C (dose: 62.0 mg/kg/injection, schedule: Q01DX011 (ip), vehicle: other) is 3 % of control; the T/C (dose: 125.0 mg/kg/injection, schedule: Q01DX011 (ip), vehicle: other) was 3 % of control.

In the case of `NS(=O)(=O)c1ncc2[nH]cnc2n1`, the T/C runs as follows: under setting [5], 111 % of control; (dose: 450.0 mg/kg/injection, schedule: Q01DX011 (ip), vehicle: carboxymethylcellulose (CMC)) 82 % of control.

`c1ccc(N2N=C3N(c4ccccc4)C2N3c2ccccc2)cc1`: the T/C (dose: 15.0 mg/kg/injection, schedule: Q01DX011 (ip), vehicle: other) was 87 % of control.
